For 27 compounds, IC50 results are on record in patent US20260226065A1, “SUBSTITUTED BENZENE COMPOUND” (DAIICHI SANKYO COMPANY, LIMITED, priority 2023, published 2026).

Broadly, the IC50 is the midpoint of a concentration-inhibition curve. High values mean a need for much substance, low ones inhibition by little substance.

T1 sequence (Q96P20 whole entry): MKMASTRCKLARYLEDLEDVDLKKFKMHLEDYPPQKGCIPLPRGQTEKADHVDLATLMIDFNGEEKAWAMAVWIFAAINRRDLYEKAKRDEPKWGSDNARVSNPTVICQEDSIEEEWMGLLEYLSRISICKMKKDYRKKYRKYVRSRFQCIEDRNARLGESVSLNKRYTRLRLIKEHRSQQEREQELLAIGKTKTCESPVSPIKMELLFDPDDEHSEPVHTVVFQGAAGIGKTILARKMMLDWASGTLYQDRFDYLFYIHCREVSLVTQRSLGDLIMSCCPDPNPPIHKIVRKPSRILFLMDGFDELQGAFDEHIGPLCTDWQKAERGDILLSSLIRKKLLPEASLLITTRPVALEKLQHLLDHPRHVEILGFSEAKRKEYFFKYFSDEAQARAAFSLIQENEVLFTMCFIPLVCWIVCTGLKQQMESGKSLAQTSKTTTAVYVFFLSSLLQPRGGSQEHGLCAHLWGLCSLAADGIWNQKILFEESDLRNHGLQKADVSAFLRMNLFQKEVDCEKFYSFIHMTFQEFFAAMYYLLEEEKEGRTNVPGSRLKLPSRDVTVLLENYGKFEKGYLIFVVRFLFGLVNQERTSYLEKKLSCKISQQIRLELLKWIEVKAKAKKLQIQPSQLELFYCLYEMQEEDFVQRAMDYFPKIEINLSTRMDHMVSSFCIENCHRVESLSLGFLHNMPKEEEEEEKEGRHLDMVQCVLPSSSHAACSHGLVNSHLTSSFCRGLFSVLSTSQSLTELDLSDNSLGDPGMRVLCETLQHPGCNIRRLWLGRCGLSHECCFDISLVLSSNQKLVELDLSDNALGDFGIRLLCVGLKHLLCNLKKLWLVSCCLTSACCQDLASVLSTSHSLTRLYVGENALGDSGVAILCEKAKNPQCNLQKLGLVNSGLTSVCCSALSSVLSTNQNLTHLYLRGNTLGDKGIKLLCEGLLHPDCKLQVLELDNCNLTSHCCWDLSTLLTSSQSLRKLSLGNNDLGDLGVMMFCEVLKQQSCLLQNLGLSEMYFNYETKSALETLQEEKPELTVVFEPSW

This assay has as its target T1, NLRP3 inflammasome (Homo sapiens, UniProt Q96P20).
T1 construct: endogenous in cells; host or cells: THP-1 (human monocyte-derived), PMA-differentiated, Nigericin-stimulated
The assay can be described thus: In vitro IL-1β production test (PMA-differentiated THP-1 cells, Nigericin stimulation, AlphaLISA). The assay is classed as cell-based. To be noted: inhibition of IL-1β production; THP-1 cells differentiated with 200 nM PMA; 0.015 mM Nigericin; 2 hours. As for the experimental part: Human monocyte-derived THP-1 cells were cultured for one day in 10% bovine serum-containing RPMI-1640 medium (Thermo #A10491-01) supplemented with 200 nM phorbol 12-myristate 13-acetate (PMA, Sigma #P8139) to induce differentiation.
NLRP3 inflammasome was induced by replacing the culture medium with bovine serum-free RPMI-1640 medium supplemented with 0.015 mM Nigericin (Sigma #SML1779) and the test compound of known concentrations.
After 2 hours, the culture medium supernatant was collected and the IL-1β protein concentration was measured using the AlphaLISA (registered trademark) assay (PerkinElmer #AL220C).
The IL-1β concentration without the addition of the test compound and with Nigericin stimulation was set as 0% inhibitory activity, and the IL-1β concentration without Nigericin stimulation was set as 100% inhibitory activity, and the inhibition rate (% inhibition) of the test compound at each added concentration was calculated.
The % inhibition value was subjected to sigmoid fitting using a logistic regression model to calculate the 50% inhibitory concentration (IC50 value).
Regarding `Cc1cc(C(F)(F)F)cc(O)c1-c1cc2cccc([C@@H]3CCCN(C)C3)c2nn1` (single isomer, unassigned) [Example 96, 3-methyl-2-{8-[(3R or 3S)-1-methylpiperidin-3-yl]cinnolin-3-yl}-5-(trifluoromethyl)phenol], inhibition was half-maximal at 11.5 nM (IC50).

As for `Cc1cc(C(F)(F)F)cc(O)c1-c1cc2c(nn1)N([C@@H]1CC[C@@H]3CC[C@H]1N3C)CC2` (single isomer, unassigned) [Example 19, 3-methyl-2-{7-[(1R,2R,5S or 1,2S,5R)-8-methyl-8-azabicyclo[3.2.1]octan-2-yl]-6,7-dihydro-5H-pyrrolo[2,3-c]pyridazin-3-yl}-5-(trifluoromethyl)phenol], the IC50 was 9.99 nM.

As to `CN1CCC[C@@H](N2CCN3CCCc4c(-c5ccc(C(F)(F)F)cc5O)nnc2c43)C1` [Example 38, 2-{9-[(3R)-1-methylpiperidin-3-yl]-5,6,8,9-tetrahydro-4H, 7H-1,2,6a,9-tetraazaphenalen-3-yl}-5-(trifluoromethyl)phenol], the IC50 came out at 108 nM.

Turning to `Cc1cc(C(F)(F)F)cc(O)c1-c1cc2ncn([C@@H]3CCCN(C)C3)c2nn1` [Example 32, 3-methyl-2-{7-[(3R)-1-methylpiperidin-3-yl]-7H-imidazo[4,5-c]pyridazin-3-yl}-5-(trifluoromethyl)phenol], the IC50 was 30.6 nM.

Turning to `Cc1cc(Cl)cc(O)c1-c1cc2c(OC(F)F)cn([C@H]3C[C@@](C)(O)C3)c2nn1` [Example 29, 5-chloro-2-{5-(difluoromethoxy)-7-[(1s,3s)-3-hydroxy-3-methylcyclobutyl]-7H-pyrrolo[2,3-c]pyridazin-3-yl}-3-methylphenol], half-maximal inhibition (IC50) required 12.4 nM.

In turn, `Cc1cc(C(F)(F)F)cc(O)c1-c1cc2c(nn1)N([C@@H]1CCCN(C)C1)C(C)C2` (mixture of isomers) [Example 30, 3-methyl-2-{6-methyl-7-[(3R)-1-methylpiperidin-3-yl]-6,7-dihydro-5H-pyrrolo[2,3-c]pyridazin-3-yl}-5-(trifluoromethyl)phenol] gave an IC50 of 14.4 nM.

`Cc1cc(C(F)(F)F)cc(O)c1-c1cc2c(nn1)N([C@H]1CN(C)CC[C@H]1O)CC2` [Example 49, (3S,4R)-3-{3-[2-hydroxy-6-methyl-4-(trifluoromethyl)phenyl]-5,6-dihydro-7H-pyrrolo[2,3-c]pyridazin-7-yl}-1-methylpiperidin-4-ol]: 78 nM corresponded to half-maximal inhibition (IC50).

Regarding `CCN1[C@H]2CC[C@@H]1[C@H](n1cc(C)c3cc(-c4c(C)cc(C(F)(F)F)cc4O)nnc31)CC2` (single isomer, unassigned) [Example 76, 2-{7-[(1R,2R,5S or 1S,2S,5R)-8-ethyl-8-azabicyclo[3.2.1]octan-2-yl]-5-methyl-7H-pyrrolo[2,3-c]pyridazin-3-yl}-3-methyl-5-(trifluoromethyl)phenol], 10.1 nM corresponded to half-maximal inhibition (IC50).

Turning to `Cc1cc(C(F)(F)F)cc(O)c1-c1cc2c(C)c(C)n([C@H]3C[C@@](C)(O)C3)c2nn1` [Example 51, 2-{7-[(1s,3s)-3-hydroxy-3-methylcyclobutyl]-5,6-dimethyl-7H-pyrrolo[2,3-c]pyridazin-3-yl}-3-methyl-5-(trifluoromethyl)phenol], inhibition was half-maximal at 33.6 nM (IC50).

On to `CCN1CCC[C@@H](N2CCc3cc(-c4c(C)cc(Cl)cc4O)nnc32)C1` [Example 26, 5-chloro-2-{7-[(3R)-1-ethylpiperidin-3-yl]-6,7-dihydro-5H-pyrrolo[2,3-c]pyridazin-3-yl}-3-methylphenol], for which the midpoint of inhibition, the IC50, lay at 6.18 nM.

The compound `CCc1cn([C@H]2C[C@@](C)(O)C2)c2nnc(-c3c(C)cc(C(F)(F)F)cc3O)cc12` [Example 44, 2-{5-ethyl-7-[(1s,3s)-3-hydroxy-3-methylcyclobutyl]-7H-pyrrolo[2,3-c]pyridazin-3-yl}-3-methyl-5-(trifluoromethyl)phenol] displayed an IC50 of 75 nM.

Take `Cc1cc(OC(F)F)cc(O)c1-c1cc2c(C)cn([C@H]3C[C@@](C)(O)C3)c2nn1` [Example 13, 5-(difluoromethoxy)-2-{7-[(1s,3s)-3-hydroxy-3-methylcyclobutyl]-5-methyl-7H-pyrrolo[2,3-c]pyridazin-3-yl}-3-methylphenol]: inhibition was half-maximal at 37.6 nM (IC50).

Take `CCN1CCC[C@@H](c2cccc3cc(-c4c(C)cc(C(F)(F)F)cc4O)nnc23)C1` (single isomer, unassigned) [Example 97, 2-{8-[(3R or 3S)-1-ethylpiperidin-3-yl]cinnolin-3-yl}-3-methyl-5-(trifluoromethyl)phenol]: the IC50 was determined as 8.33 nM.

In turn, `CCN1[C@H]2CC[C@H](N3CCc4cc(-c5c(C)cc(C(F)(F)F)cc5O)nnc43)[C@@H]1CC2` (racemic) [Example 17, 2-{7-[(1S*, 2S*, 5R*)-8-ethyl-8-azabicyclo[3.2.1]octan-2-yl]-6,7-dihydro-5H-pyrrolo[2,3-c]pyridazin-3-yl}-3-methyl-5-(trifluoromethyl)phenol] showed an IC50 of 9.47 nM.

`Cc1cc(C(F)(F)F)cc(O)c1-c1cc2c(nn1)N([C@@H]1CCCN(C)C1)[C@H](C)C2` (single isomer, unassigned) [Example 55, 3-methyl-2-{(6R or 6S)-6-methyl-7-[(3R)-1-methylpiperidin-3-yl]-6,7-dihydro-5H-pyrrolo[2,3-c]pyridazin-3-yl}-5-(trifluoromethyl)phenol] yielded an IC50 of 23.8 nM.

`Cc1cc(C(F)(F)F)cc(O)c1-c1cc2cc(C)n([C@H]3C[C@@](C)(O)C3)c2nn1` [Example 87, 2-{7-[(1s,3s)-3-hydroxy-3-methylcyclobutyl]-6-methyl-7H-pyrrolo[2,3-c]pyridazin-3-yl}-3-methyl-5-(trifluoromethyl)phenol]: the IC50 was 40.1 nM.

For the compound `Cc1cc(C(F)(F)F)cc(O)c1-c1cc2c(nn1)N([C@@H]1CCCN(C3CC3)C1)CC2` [Example 18, 2-{7-[(3R)-1-cyclopropylpiperidin-3-yl]-6,7-dihydro-5H-pyrrolo[2,3-c]pyridazin-3-yl}-3-methyl-5-(trifluoromethyl)phenol], the IC50 was 6.65 nM.

`Cc1cc(C(F)(F)F)cc(O)c1-c1cc2ccn([C@H]3C[C@@](C)(O)[C@H]3C)c2nn1` (racemic) [Example 42, 2-{7-[(1S*,2S*,3R*)-3-hydroxy-2,3-dimethylcyclobutyl]-7H-pyrrolo[2,3-c]pyridazin-3-yl}-3-methyl-5-(trifluoromethyl)phenol] registered an IC50 of 74 nM.

Consider `Cc1cc(C(F)(F)F)cc(O)c1-c1cc2ccn([C@H]3C[C@@](C)(CO)C3)c2nn1` [Example 7, 2-{7-[(1s,3s)-3-(hydroxymethyl)-3-methylcyclobutyl]-7H-pyrrolo[2,3-c]pyridazin-3-yl}-3-methyl-5-(trifluoromethyl)phenol], for which the IC50 was 67.6 nM.

`Cc1cc(OC(F)F)cc(O)c1-c1cc2c3c(n([C@H]4C[C@@](C)(O)C4)c2nn1)CCC3` [Example 80, 5-(difluoromethoxy)-2-{8-[(1s,3s)-3-hydroxy-3-methylcyclobutyl]-5,6,7,8-tetrahydrocyclopenta[4,5]pyrrolo[2,3-c]pyridazin-3-yl}-3-methylphenol] returned an IC50 of 22.4 nM.

`CCN1CCC[C@@H](N2CCc3cc(-c4c(C)cc(OC(F)F)cc4O)nnc32)C1` [Example 22, 5-(difluoromethoxy)-2-{7-[(3R)-1-ethylpiperidin-3-yl]-6,7-dihydro-5H-pyrrolo[2,3-c]pyridazin-3-yl}-3-methylphenol] gave an IC50 of 10.5 nM.

`Cc1cc(C(F)(F)F)cc(O)c1-c1cc2c3c(n([C@H]4C[C@@](C)(O)C4)c2nn1)COC3` [Example 99, 2-{8-[(1s,3s)-3-hydroxy-3-methylcyclobutyl]-7,8-dihydro-5H-furo[3′,4′:4,5]pyrrolo[2,3-c]pyridazin-3-yl}-3-methyl-5-(trifluoromethyl)phenol] displayed an IC50 of 9.53 nM.

Turning to `Cc1cc(Cl)cc(O)c1-c1cc2c3c(n([C@H]4C[C@@](C)(O)C4)c2nn1)CCC3` [Example 82, 5-chloro-2-{8-[(1s,3s)-3-hydroxy-3-methylcyclobutyl]-5,6,7,8-tetrahydrocyclopenta[4,5]pyrrolo[2,3-c]pyridazin-3-yl}-3-methylphenol], it took 7.83 nM to reach half-maximal inhibition (IC50).

Turning to `Cc1cc(C(F)(F)F)cc(O)c1-c1cc2c(nn1)N([C@H]1C[C@@](C)(O)C1)C(C)C2` (mixture of isomers) [Example 86, 2-{7-[(1s,3s)-3-hydroxy-3-methylcyclobutyl]-6-methyl-6,7-dihydro-5H-pyrrolo[2,3-c]pyridazin-3-yl}-3-methyl-5-(trifluoromethyl)phenol], the IC50 worked out at 141 nM.

The compound `Cc1cc(C(F)(F)F)cc(O)c1-c1cc2c(nn1)N([C@@H]1CCCN(C)C1)C[C@@H]2C` (single isomer, unassigned) [Example 34, 3-methyl-2-{(5R or 5S)-5-methyl-7-[(3R)-1-methylpiperidin-3-yl]-6,7-dihydro-5H-pyrrolo[2,3-c]pyridazin-3-yl}-5-(trifluoromethyl)phenol] came in with an IC50 of 9.07 nM.

`Cc1cc(OC(F)F)cc(O)c1-c1cc2c(C#N)cn([C@@H]3CCCN(C(C)C)C3)c2nn1` [Example 68, 3-[4-(difluoromethoxy)-2-hydroxy-6-methylphenyl]-7-[(3R)-1-(propan-2-yl)piperidin-3-yl]-7H-pyrrolo[2,3-c]pyridazine-5-carbonitrile]: the IC50 turned out to be 6.01 nM.

`Cc1cc(C(F)(F)F)cc(O)c1-c1cc2c(nn1)N([C@@H]1CCCN(C)C1)CCCN2C` [Example 37, 3-methyl-2-{5-methyl-9-[(3R)-1-methylpiperidin-3-yl]-6,7,8,9-tetrahydro-5H-pyridazino[3,4-b][1,4]diazepin-3-yl}-5-(trifluoromethyl)phenol] had an IC50 of 25.8 nM.
